Laboratory results reported in patent EP0142057A2, “Thiazoloquinazoline derivatives, their preparation and pharmaceutical compositions containing same” (F. HOFFMANN-LA ROCHE AG, priority 1983, dated 1985).

Tests used:
[1] = system: antigen-induced bronchoconstriction; assay: In vivo screening procedure for SRS-A synthesis inhibitors in guinea pigs; conditions: 10 mg/kg i.v., 1 minute prior to antigen challenge
Text: Paralyzed, artificially ventilated, actively sensitized guinea pigs are pretreated with indomethacin (to divert the flow of endogenous arachidonic acid through the lipoxygenase pathway), pyrilamine maleate (to block any bronchoconstriction due to released histamine) and propranol (to enhance the sensitivity of the guinea pig bronchoconstriction to SRS-A) prior to challenging the animal with antigen. Under these conditions the resulting antigen-induced bronchoconstriction has been characterized as being attributable to the synthesis and release of SRS-A in the guinea pig lung. Test compounds are initially studies for their inhibitory properties in this test system by the intravenous route (at 10 mg/kg) given 1 minute prior to antigen challenge.

[2] = molecular target: T1, TXA2 synthase (Homo sapiens, UniProt P24557); assay: Thromboxane synthase inhibition, in vitro; format: biochemical; conditions: at 10^-7M; microsomal fractions from human platelets; read-out: TXA2Synthase Inhibition (% at 10^-7M)
T1 construct: using microsomal fractions from human platelets as enzyme source; from tissue; host or cells: human platelets (microsomal fraction)
T1 sequence (P24557 1-533): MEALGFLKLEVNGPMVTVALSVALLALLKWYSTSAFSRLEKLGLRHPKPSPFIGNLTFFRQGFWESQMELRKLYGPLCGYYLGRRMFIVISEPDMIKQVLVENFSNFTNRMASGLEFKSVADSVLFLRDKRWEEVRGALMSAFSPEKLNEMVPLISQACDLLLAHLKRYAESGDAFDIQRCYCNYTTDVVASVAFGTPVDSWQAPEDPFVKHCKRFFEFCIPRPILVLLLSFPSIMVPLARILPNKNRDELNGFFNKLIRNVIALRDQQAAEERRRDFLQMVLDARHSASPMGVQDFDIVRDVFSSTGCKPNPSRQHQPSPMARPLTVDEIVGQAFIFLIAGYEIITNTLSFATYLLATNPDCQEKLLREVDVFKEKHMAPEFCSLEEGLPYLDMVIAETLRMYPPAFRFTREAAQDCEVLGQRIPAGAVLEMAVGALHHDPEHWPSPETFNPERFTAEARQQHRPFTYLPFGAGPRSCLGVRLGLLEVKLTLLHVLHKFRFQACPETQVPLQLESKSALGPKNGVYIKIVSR
Method: TXA2 synthase activity is measured by following the conversion of ^14C-prostaglandin endoperoxide (PGH2) to ^14C-thromboxane A2 (TXA2) using microsomal fractions from human platelets as enzyme source. In the aqueous incubation medium, the TXA2 decomposes rapidly into TXB2. The amount of TXA2 synthase is adjusted so that under the conditions of the assay approximately 80-90% of the substrate, PGH2, is converted to product in control tubes. To prepare ^14C-PGH2, ^14C-AA (50-60 mCi/mmole: Rose Chem.) is incubated with sheep seminal vesicular gland microsomes for 1.5 minutes at 37°C and then the ^14C-PGH2 is extracted with diethylether, purified on columns of Sephadex LH-20 or silicic acid, and stored in acetone at -70°C. Incubations are done as follows. Sufficient ^14C-PGH2 to yield a final substrate concentration of 10 µM (30,000 cpm) is added to the incubation tubes and then the acetone is removed under nitrogen. The tubes are placed in an ice bath and then 215 1 of ice cold phosphate buffered saline, 10 1 of ethanol (control) or of test drug in ethanol, and 25 1 of the microsomal suspension are added with mixing in that order as rapidly as possible. The tubes are incubated at 22°C for 2 minutes, the reaction is stopped and then the radioactive products and the uncoverted PGH2 are extracted and analyzed by thin layer chromatography. […] The amount of ^14C-PGH2 converted to products was used as a measure of TXA2 synthase activity. Inhibitors were tested initially at a final concentration of 100 µM. Results obtained with representative compounds of the present invention in this assay are summarized hereafter in Table I.

inhibition at 0.1 µM [2] | Compound | inhibition of the bronchoconstriction [1]
 | CC(C)c1ccc2nc3sc(C(=O)NCCCCc4ccccn4)cn3c(=O)c2c1 [Example 11] | 44%
67% | CC(C)c1ccc2nc3sc(C(=O)NCCCCn4ccnc4)cn3c(=O)c2c1 [the 1st table, row 8] | 
